# Assay results published in patent US20160152831A1, “YELLOW COLORANT FOR HAIR DYEING, COMPOSITION FOR HAIR DYEING, AND HAIR DYEING METHOD” (HODOGAYA CHEMICAL CO., LTD., priority 2013, published 2016).
# Columns and labels:
# [1] = Shampooing-fastness test of dyed hair; assay type: physicochemical, human; conditions: for Color Difference (ΔE*): before vs after test; for Color Difference (ΔE*) / Residual Ratio %: 5 cycles; for Residual Ratio %: dyeing density after test to before test
# Description: The test sample with Yellow 29 prepared in Example 1 was tested according to the shampooing-fastness test mentioned below, and the dyeing density (K/Sd) and color difference (ΔE*) before and after the test were determined. In the Table, the residual ratio (%) means the ratio of the dyeing density after the test to the dyeing density before the test.
# The test sample was subjected to a cycle operation of (1) shampooing followed by (2) treatment as mentioned below, repeatedly five times in all, and then spontaneously dried at room temperature (about 20° C.).
# Shampoo liquid: aqueous 5% sodium laurylsulfate solution
# Bath ratio: 1/10 (mass of shampooing liquid relative to 1 g mass of dyed hair)
# Processing temperature: 45° C.
# Processing time: 20 minutes
# Post-treatment: rinsing with water
# Treatment liquid: aqueous 5% trimethylstearylammonium chloride solution
# Bath ratio: 1/10 (mass of treatment liquid relative to 1 g mass of dyed hair)
# [2] = Light-fastness test of dyed hair (xenon fade meter); assay type: physicochemical, human; conditions: 330 W/m^2, 20 hours; for Color Difference (ΔE*): before vs after test; for Residual Ratio %: dyeing density after test to before test
# Description: A composition for hair dyeing having a pH of 6 was prepared according to the compounding formation as shown in Table 6 by using Yellow 29 as the dye. By using the thus-prepared composition for hair dyeing, a test sample was prepared according to the same method as in Example 1. The resultant test sample was exposed to white light at an irradiation dose of 330 W/m^2 for 20 hours, by using a xenon long-life fade meter light-fastness tester Suga Test Instrument, FAL-25AX-HC-BEC Model), and the dyeing density (K/Sd) and the color values (L*, a*, b*) before and after the test, and the color difference (ΔE*) were determined. The light-fastness test was carried out under the condition where the temperature of the test sample could be from 60 to 66° C.
Structure (SMILES),Color Difference (ΔE*) [1],shampooing-fastness ([1]; compared with Yellow 87),Residual Ratio % [1],light-fastness [2],Color Difference (ΔE*) [2],Residual Ratio % [2]
"Cc1ccc(N(C)/N=C/C2=[N+](C)c3ccccc3C2(C)C)cc1 [Yellow 29, C. I. Basic Yellow 29]",6.6,extremely excellent,82%,excellent,2.8,89%
"Cc1nn(-c2ccccc2)c(O)c1/N=N/c1cccc([N+](C)(C)C)c1.[Cl-] [Yellow 57, C.I. Basic Yellow 57, reference compound]",–,–,–,low,10.2,98%
"CN(/N=C\c1cc[n+](C)cc1)c1ccccc1 [Yellow 87, C.I. Basic Yellow 87, reference compound]",21.8,–,33%,–,–,–
